Test results taken from PubChem BioAssay AID1845204 (Molecular Pharmacology Branch, DTP, NCI, 2023).

System: HSSY-II tumor spheroid viability
Test: Anticancer human tumor HSSY-II cell line growth inhibition;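 also: spheroids exposed to compounds for seven days before reading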;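 as to viability, T/C: percent of DMSO vehicle control viability so 100% = untreated level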
Conditions: spheroids with HUVEC and MSC; for IC50: curve of first compound; for viability, T/C: stronger effect = lower value
Text: Multicellular complex tumor spheroid response to DNA repair inhibitors in combination with DNA-damaging drugs
This study explores the anticancer activities of DNA-damaging drugs and inhibitors of DNA damage repair, both as single agents and in combinations. Complex tumor spheroids comprised of malignant cells, endothelial cells and mesenchymal stem cells served as an in vitro model for human solid tumors. This model system incorporates physiologically relevant features and patient-derived or established malignant cell lines with clinically relevant genetic alterations from many tumor types. Twenty-six patient-derived or established malignant cell lines were evaluated representing sarcoma, melanoma, small cell lung cancer (SCLC), non-small cell lung cancer (NSCLC), as well as bladder, ovarian and pancreatic cancers. The concentration ranges selected for each drug and investigational agent were based upon clinically achievable concentrations if the clinical Cmax of the agent was known.
Compounds. The drugs and compounds olaparib (NSC753686), talazoparib (NSC767125), berzosertib (NSC777718), elimusertib (NSC800525), nedisertib (NSC802822), VX-984 (NSC792969), AZD-1390 (NSC803789), temozolomide (NSC362856), topotecan (NSC609699), trabectedin (NSC813783), staurosporine (NSC755774), and gemcitabine (NSC613327) were obtained from the National Cancer Institute (NCI) Developmental Therapeutics Program Chemical Repository. The FDA-approved anticancer drug set is available from the Developmental Therapeutics Program at https://dtp.cancer.gov/organization/dscb/obtaining/available_plates.htm. […] The stock solutions were prepared in dimethyl sulfoxide (DMSO, Sigma-Aldrich, St. Louis, MO, cat. D2650) at 400-fold the tested concentration and stored at -70 degrees C. Prior to their use, the stock solutions were diluted in fresh medium and the final DMSO concentration in the assay was 0.25% (v/v). All drugs and investigational agents were tested over a range starting from a high concentration at or near the clinical Cmax and decreasing in half-log increments. If the clinical Cmax for an agent had not been determined, the highest concentration tested was 10 microM.
Cell Lines. The patient-derived cancer cell (PDC) lines: 156681-154-R-J1-PDC, 283228-195-R-J1-PDC, 287954-098-R-J1-PDC, 292921-168-R-J2-PDC, 349418-098-R-PDC, 425362-245-T-J1-PDC, 556581-035-R-J1-PDC, and BL0293-F563-PDC were received from the NCI Patient-Derived Models Repository (PDMR, https://pdmr.cancer.gov). The established cell lines HS-SY-2 (RRID:CVCL_8719), MPNST, and SYO-1 (RRID:CVCL_7146) were obtained from the Sloan Kettering Institute. The alveolar soft parts sarcoma cell line ASPS-1 (RRID:CVCL_S738) was established at the NCI and grown from internal seed stocks. The following established cell lines were purchased from the American Type Culture Collection (ATCC, Manassas, VA): G-401 (ATCC, cat. CRL-1441, RRID:CVCL_0270), SW982 (ATCC, cat. HTB-93, RRID:CVCL_1734), VA-ES-BJ (ATCC, cat. CRL-2138, RRID:CVCL_1785), NCI-H719 (ATCC, cat. CRL-5837, RRID:CVCL_1582), NCI-H196 (ATCC, cat. CRL-5823, RRID:CVCL_1509), NCI-H841 (ATCC, cat. CRL-5845, RRID:CVCL_1595), NCI-H1618 (ATCC, cat. CRL-5879, RRID:CVCL_1480), NCI-H1876 (ATCC, cat. CRL-5902, RRID:CVCL_1503), DMS 114 (ATCC, cat. CRL-2066; RRID:CVCL_1174), NCI-H211 (ATCC, cat. CRL-5824; RRID:CVCL_1529), and SW 1271 (ATCC, cat. CRL-2177, RRID:CVCL_1716). The small cell lung cancer cell line COR-L88 was purchased from Sigma-Aldrich (cat. 92031917-1VL, RRID:CVCL_1141). The non-small cell lung cancer cell lines NCI-H226 (RRID:CVCL_1544) and NCI-H322M (RRID:CVCL_1557) were established at the NCI and grown from internal seed stocks. Pooled donor human umbilical vein endothelial cells (HUVEC, Lonza, cat. CC-2519) and human mesenchymal stem cells (hMSC, Lonza, cat. PT-2501) were purchased from Lonza (Walkersville, MD).
Cell Culture. All cells were maintained in an incubator at 37 degrees C and 5% CO2 with 95% humidity. […]

## Cc1cc(C)c(CNC(=O)c2cc(-c3ccc(CN4CCOCC4)cc3)cc3c2cnn3C2CCCC2)c(=O)[nH]1 + Cn1nnc2c(C(N)=O)ncn2c1=O
Second compound 1 µM
  IC50: > 10 µM
Second compound 3.16 µM
  IC50: > 10 µM
Second compound 10 µM
  IC50: > 10 µM
Second compound 31.6 µM
  IC50: > 10 µM
Second compound 100 µM
  IC50: > 10 µM
Second compound 1 µM, first compound 0.0316 µM
  viability, T/C: 98.4%
Second compound 1 µM, first compound 0.1 µM
  viability, T/C: 105%
Second compound 1 µM, first compound 0.316 µM
  viability, T/C: 92.8%
Second compound 1 µM, first compound 1 µM
  viability, T/C: 97.2%
Second compound 1 µM, first compound 3.16 µM
  viability, T/C: 91.4%
Second compound 1 µM, first compound 10 µM
  viability, T/C: 79.8%
Second compound 3.16 µM, first compound 0.0316 µM
  viability, T/C: 101%
Second compound 3.16 µM, first compound 0.1 µM
  viability, T/C: 99.1%
Second compound 3.16 µM, first compound 0.316 µM
  viability, T/C: 95.1%
Second compound 3.16 µM, first compound 1 µM
  viability, T/C: 98.7%
Second compound 3.16 µM, first compound 3.16 µM
  viability, T/C: 89.9%
Second compound 3.16 µM, first compound 10 µM
  viability, T/C: 72.7%
Second compound 10 µM, first compound 0.0316 µM
  viability, T/C: 98%
Second compound 10 µM, first compound 0.1 µM
  viability, T/C: 98.2%
Second compound 10 µM, first compound 0.316 µM
  viability, T/C: 100%
Second compound 10 µM, first compound 1 µM
  viability, T/C: 93.5%
Second compound 10 µM, first compound 3.16 µM
  viability, T/C: 92.6%
Second compound 10 µM, first compound 10 µM
  viability, T/C: 68.4%
Second compound 31.6 µM, first compound 0.0316 µM
  viability, T/C: 104%
Second compound 31.6 µM, first compound 0.1 µM
  viability, T/C: 98%
Second compound 31.6 µM, first compound 0.316 µM
  viability, T/C: 94.4%
Second compound 31.6 µM, first compound 1 µM
  viability, T/C: 102%
Second compound 31.6 µM, first compound 3.16 µM
  viability, T/C: 88.4%
Second compound 31.6 µM, first compound 10 µM
  viability, T/C: 73.8%
Second compound 100 µM, first compound 0.0316 µM
  viability, T/C: 94%
Second compound 100 µM, first compound 0.1 µM
  viability, T/C: 93.9%
Second compound 100 µM, first compound 0.316 µM
  viability, T/C: 91%
Second compound 100 µM, first compound 1 µM
  viability, T/C: 95.5%
Second compound 100 µM, first compound 3.16 µM
  viability, T/C: 85.2%
Second compound 100 µM, first compound 10 µM
  viability, T/C: 70.4%
